Experiments:
[1] = Solubility of drinabant in excipients; format: physicochemical
Procedure: Drinabant may be added to a fixed volume of aqueous solution with and without various amounts of water soluble carriers such as Solutol HS 15 in screw capped bottles. […] Filtered solutions are then analyzed for drinabant concentration using an appropriate method such as UV/visible spectrophotometry at an appropriate wavelength (nm) or by HPLC.
Two different categories of excipients, described in the literature as injectable intravenously, were tested for the solubility of drinabant:
(§1) The chemical composition of the selected excipients, as well the solubility of drinabant, are renorted in the table below.

[2] = cited from earlier work
[3] = Stability at RT of drinabant in the saturated solution; format: physicochemical
Excerpt: as §1

drinabant solubility ([1]; in Cremophor EL (POE hydrogenated castor oil)): 49.4 mg/g | drinabant solubility ([1]; in Glycerol): <<0.0001 mg/g | drinabant solubility ([1]; in Glycofurol): 139.4 mg/g | drinabant solubility ([1]; in PEG 400): 50 mg/g | drinabant solubility ([1]; in PS80 VG (POE monooleate)): 48.8 mg/g | drinabant solubility ([1]; in Propylene glycol): 7 mg/g | drinabant solubility ([1]; in Solutol HS15 (PEG hydroxystearate), at 40° C.): 64.6 mg/g | Stability at RT of drinabant in the saturated solution ([3]; in Cremophor EL): Stable | Stability at RT of drinabant in the saturated solution ([3]; in PS80 VG): Stable | Stability at RT of drinabant in the saturated solution ([3]; in Solutol HS15): Stable
Structure (SMILES): CS(=O)(=O)N(c1cc(F)cc(F)c1)C1CN(C(c2ccc(Cl)cc2)c2ccc(Cl)cc2)C1 [drinabant]
Tmax ([2]; oral drinabant): > 3 h | safety and tolerability ([2]; oral, up to 240 mg up to 3 weeks (Phase I), 60 mg up to 24 weeks (Phase II)): safe and well tolerated
